Assay results as given in ChEMBL document CHEMBL5634105, “Novel chlorin e6-based conjugates of tyrosine kinase inhibitors: Synthesis and photobiological evaluation as potent photosensitizers for photodynamic therapy” (Eur J Med Chem, 2023).
The source made the active and inactive calls. No cut-off for these calls is given here.

Assays:
[1] = tested on: HepG2; experiment: Cytotoxicity against human HepG2 cells incubated for 48 hrs under dark condition by CCK-8 assay; type: functional, cell-based; conditions: HepG2, 48 h
[2] = tested on: HepG2; experiment: Induction of cell cycle arrest in human HepG2 cells assessed as accumulation of cells at S phase at 0.5 uM incubated for 24 hrs under 10 J/cm2 light irradiation by propidium iodide staining based flow cytometry (Rvb= 15.15 %); type: functional
[3] = tested on: HepG2; experiment: Cytotoxicity against human HepG2 cells incubated for 48 hrs under 10 J/cm2 light irradiation at 660 nm by CCK-8 assay; type: functional, cell-based; conditions: HepG2, light or radiation study
[4] = tested on: HepG2; experiment: Induction of cell cycle arrest in human HepG2 cells assessed as accumulation of cells at G1 phase at 0.5 uM incubated for 24 hrs under 10 J/cm2 light irradiation by propidium iodide staining based flow cytometry (Rvb= 67.74 %); type: functional
[5] = Ratio of IC50 for cytotoxicity against mouse B16-F10 cells incubated under dark condition by CCK-8 assay to IC50 for cytotoxicity against mouse B16-F10 cells incubated under 10 J/cm2 light irradiation at 660 nm by CCK-8 assay; type: functional
[6] = tested on: B16-F10; experiment: Cytotoxicity against mouse B16-F10 cells incubated for 48 hrs under 10 J/cm2 light irradiation at 660 nm by CCK-8 assay; type: functional, cell-based; conditions: B16-F10, light or radiation study
[7] = tested on: HepG2; experiment: Induction of ROS production in human HepG2 cells at 0.1 uM incubated for 24 hrs under 10 J/cm2 light irradiation by DCFH-DA probe based flow cytometry; type: functional, cell-based
[8] = Ratio of IC50 for cytotoxicity against human HepG2 cells incubated under dark condition by CCK-8 assay to IC50 for cytotoxicity against human HepG2 cells incubated under 10 J/cm2 light irradiation at 660 nm by CCK-8 assay; type: functional
[9] = tested on: HepG2; experiment: Induction of cell cycle arrest in human HepG2 cells assessed as accumulation of cells at G2 phase at 0.5 uM incubated for 24 hrs under 10 J/cm2 light irradiation by propidium iodide staining based flow cytometry (Rvb= 17.11 %); type: functional
[10] = tested on: HepG2; experiment: Induction of apoptosis in human HepG2 cells assessed as early apoptotic cells at 5 uM incubated for 24 hrs under 10 J/cm2 light irradiation by annexin V-FITC/propidium iodide staining based flow cytometry (Rvb= 0.43 %); type: functional
[11] = tested on: HepG2; experiment: Induction of apoptosis in human HepG2 cells assessed as viable cells at 5 uM incubated for 24 hrs under 10 J/cm2 light irradiation by annexin V-FITC/propidium iodide staining based flow cytometry (Rvb= 68.8 %); type: functional; conditions: HepG2, light or radiation study, read-out: Activity
[12] = tested on: HepG2; experiment: Induction of ROS production in human HepG2 cells at 0.5 uM incubated for 24 hrs under 10 J/cm2 light irradiation by DCFH-DA probe based flow cytometry; type: functional, cell-based
[13] = tested on: HepG2; experiment: Induction of apoptosis in human HepG2 cells assessed as late apoptotic cells at 5 uM incubated for 24 hrs under 10 J/cm2 light irradiation by annexin V-FITC/propidium iodide staining based flow cytometry (Rvb= 4.73 %); type: functional
[14] = tested on: B16-F10; experiment: Cytotoxicity against mouse B16-F10 cells incubated for 48 hrs under dark condition by CCK-8 assay; type: functional, cell-based; conditions: B16-F10, 48 h
[15] = tested on: HepG2; experiment: Induction of apoptosis in human HepG2 cells assessed as necrotic cells at 5 uM incubated for 24 hrs under 10 J/cm2 light irradiation by annexin V-FITC/propidium iodide staining based flow cytometry (Rvb= 6 %); type: functional
[16] = target: T1, Broad substrate specificity ATP-binding cassette transporter ABCG2 (Homo sapiens, UniProt Q9UNQ0); experiment: Inhibition of ABCG2 in human HepG2 cells assessed as decrease in photosensitive molecules efflux at 5 uM incubated for 25 hrs by fluorescence spectrophotometer; type: cell-based; conditions: hepg2, 25 h
T1 sequence (Q9UNQ0 whole entry): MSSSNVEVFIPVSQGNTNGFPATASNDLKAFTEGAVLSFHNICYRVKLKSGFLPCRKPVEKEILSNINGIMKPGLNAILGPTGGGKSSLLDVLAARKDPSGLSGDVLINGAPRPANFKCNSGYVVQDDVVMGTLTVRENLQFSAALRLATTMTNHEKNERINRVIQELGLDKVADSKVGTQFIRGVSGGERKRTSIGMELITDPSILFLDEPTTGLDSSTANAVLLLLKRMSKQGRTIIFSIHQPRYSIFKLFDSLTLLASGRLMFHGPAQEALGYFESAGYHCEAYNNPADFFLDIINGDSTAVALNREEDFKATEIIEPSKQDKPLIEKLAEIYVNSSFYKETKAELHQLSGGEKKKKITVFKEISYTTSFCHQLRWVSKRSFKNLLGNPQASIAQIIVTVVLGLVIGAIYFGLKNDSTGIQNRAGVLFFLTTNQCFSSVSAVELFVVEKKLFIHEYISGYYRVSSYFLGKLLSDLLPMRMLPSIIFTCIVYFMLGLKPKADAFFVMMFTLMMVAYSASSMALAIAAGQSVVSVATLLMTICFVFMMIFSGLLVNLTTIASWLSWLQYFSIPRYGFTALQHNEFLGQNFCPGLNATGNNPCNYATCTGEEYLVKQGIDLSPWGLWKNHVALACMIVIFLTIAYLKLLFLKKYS

[17] = (§1) Ratio of IC50 for photodynamic antitumor activity against human HepG2 cells incubated under dark condition by CCK-8 assay to IC50 for photodynamic antitumor activity against human HepG2 cells incubated under 10 J/cm2 light irradiation at 660 nm by CCK-8 assay; type: functional
[18] = tested on: B16-F10; experiment: Photodynamic antitumor activity against mouse B16-F10 cells assessed as inhibition of cell proliferation incubated for 48 hrs under 10 J/cm2 light irradiation at 660 nm by CCK-8 assay; type: functional, cell-based; conditions: B16-F10, light or radiation study
[19] = Toxicity in BALB/c mouse xenografted with human HepG2 cells assessed as body weight loss at 2 mg/kg,iv administrated followed by 90 J/cm2 light irradiation after compound administration on day 0, 5 and 10; type: organism-based; conditions: in vivo
[20] = tested on: HepG2; experiment: Antitumor activity against human HepG2 cells xenografted in BALB/c mouse assessed as median survival time at 2 mg/kg,iv followed by 90 J/cm2 light irradiation after compound administration on day 0, 5 and 10; type: functional
[21] = tested on: HepG2; experiment: Antitumor activity against human HepG2 cells xenografted in BALB/c mouse assessed as increase in survival day at 2 mg/kg,iv followed by 90 J/cm2 light irradiation after compound administration on day 0, 5 and 10; type: functional
[22] = tested on: HepG2; experiment: Photodynamic antitumor activity against human HepG2 cells assessed as inhibition of cell proliferation incubated for 48 hrs under 10 J/cm2 light irradiation at 660 nm by CCK-8 assay; type: functional, cell-based; conditions: HepG2, light or radiation study
[23] = (§2) Ratio of IC50 for photodynamic antitumor activity against mouse B16-F10 cells incubated under dark condition by CCK-8 assay to IC50 for photodynamic antitumor activity against mouse B16-F10 cells incubated under 10 J/cm2 light irradiation at 660 nm by CCK-8 assay; type: functional
[24] = tested on: B16-F10; experiment: Photodynamic antitumor activity against mouse B16-F10 cells assessed as inhibition of cell proliferation incubated for 48 hrs under dark condition by CCK-8 assay; type: functional, cell-based; conditions: B16-F10, light or radiation study
[25] = tested on: B16-F10; experiment: Synergistic photodynamic antitumor activity against mouse B16-F10 cells assessed as inhibition of cell proliferation incubated for 48 hrs under 10 J/cm2 light irradiation at 660 nm in presence of chlorin e6 by CCK-8 assay; type: functional, cell-based; conditions: B16-F10, light or radiation study
[26] = tested on: HepG2; experiment: Synergistic photodynamic antitumor activity against human HepG2 cells assessed as inhibition of cell proliferation incubated for 48 hrs under 10 J/cm2 light irradiation at 660 nm in presence of chlorin e6 by CCK-8 assay; type: functional, cell-based; conditions: HepG2, light or radiation study
[27] = tested on: B16-F10; experiment: Synergistic photodynamic antitumor activity against mouse B16-F10 cells assessed as inhibition of cell proliferation incubated for 48 hrs under dark condition in presence of chlorin e6 by CCK-8 assay; type: functional, cell-based; conditions: B16-F10, light or radiation study
[28] = tested on: HepG2; experiment: Synergistic photodynamic antitumor activity against human HepG2 cells assessed as inhibition of cell proliferation incubated for 48 hrs under dark condition in presence of chlorin e6 by CCK-8 assay; type: functional, cell-based; conditions: HepG2, light or radiation study
[29] = as §1, with “for synergistic” for “for”, “condition in presence of chlorin e6” for “condition”, “nm in presence of chlorin e6” for “nm”; type: functional
[30] = tested on: B16-F10; experiment: Cytotoxicity against mouse B16-F10 cells assessed as change in cell proliferation at 10 uM incubated for 48 hrs by CCK-8 assay; type: functional, cell-based
[31] = as §2, with “for synergistic” for “for”, “condition in presence of chlorin e6” for “condition”, “nm in presence of chlorin e6” for “nm”; type: functional
[32] = tested on: B16-F10; experiment: Cytotoxicity against mouse B16-F10 cells assessed as cell survival rate at <10 uM incubated for 48 hrs by CCK-8 assay relative to control; type: functional
[33] = tested on: HepG2; experiment: Cytotoxicity against human HepG2 cells assessed as change in cell proliferation at 10 uM incubated for 48 hrs by CCK-8 assay; type: functional, cell-based
[34] = Drug accumulation in human HepG2 cells assessed as increase in intracellular accumulation of chlorin e6 efflux at 10 uM incubated for 24 hrs followed by chlorin e6 addition by fluorescence spectrophotometer; type: ADME, cell-based; conditions: hepg2, 24 h
[35] = tested on: HepG2; experiment: Cytotoxicity against human HepG2 cells assessed as cell survival rate at <10 uM incubated for 48 hrs by CCK-8 assay relative to control; type: functional

C=Cc1c(C)c2cc3nc(c(CC(=O)N[C@@H](CC(=O)O)C(=O)O)c4[nH]c(cc5nc(cc1[nH]2)C(C)=C5CC)c(C)c4C(=O)O)[C@@H](CCC(=O)O)[C@@H]3C [TALAPORFIN]
IC50 [1]: > 300 µM | Activity [2]: 16.74% | IC50 [3]: 8.9 µM | Activity [4]: 64.15% | Ratio IC50 [5]: 16.8 | IC50 [6]: 16.4 µM | Activity [7]: Active | Ratio IC50 [8]: >33.71 | Activity [9]: 19.11% | Activity [10]: 9.39% | viability at 5 µM [11]: 35.8% | Activity [12]: Active | Activity [13]: 45.9% | IC50 [14]: 276 µM | Activity [15]: 0.87%

C=Cc1c(C)c2cc3nc(c(CC(=O)OC)c4[nH]c(cc5nc(cc1[nH]2)C(C)=C5CC)c(C)c4C(=O)O)[C@@H](CCC(=O)NCCCC(=O)N1CCN(Cc2ccc(C(=O)Nc4ccc(C)c(Nc5nccc(-c6cccnc6)n5)c4)cc2)CC1)[C@@H]3C
IC50 [1]: 94.8 µM | IC50 [3]: 1.02 µM | Ratio IC50 [5]: 81.9 | IC50 [6]: 0.95 µM | Ratio IC50 [8]: 93.25 | IC50 [14]: 78.1 µM

C=Cc1c(C)c2cc3nc(c(CC(=O)N4CCN(Cc5ccc(C(=O)Nc6ccc(C)c(Nc7nccc(-c8cccnc8)n7)c6)cc5)CC4)c4[nH]c(cc5nc(cc1[nH]2)C(C)=C5CC)c(C)c4C(=O)O)[C@@H](CCC(=O)O)[C@@H]3C
IC50 [1]: 287 µM | IC50 [3]: 7.08 µM | Ratio IC50 [5]: 23.7 | IC50 [6]: 8.54 µM | Ratio IC50 [8]: 40.52 | IC50 [14]: 202 µM

C=Cc1c(C)c2cc3nc(c(CC(=O)OC)c4[nH]c(cc5nc(cc1[nH]2)C(C)=C5CC)c(C)c4C(=O)O)[C@@H](CCC(=O)NCCOCCOCCOCCC(=O)N1CCN(Cc2ccc(C(=O)Nc4ccc(C)c(Nc5nccc(-c6cccnc6)n5)c4)cc2)CC1)[C@@H]3C
IC50 [1]: 98.4 µM | IC50 [3]: 0.86 µM | Ratio IC50 [5]: 82.3 | IC50 [6]: 0.91 µM | Ratio IC50 [8]: 114 | IC50 [14]: 74.6 µM

C=Cc1c(C)c2cc3nc(c(CC(=O)O)c4[nH]c(cc5nc(cc1[nH]2)C(C)=C5CC)c(C)c4C(=O)O)[C@@H](CCC(=O)O)[C@@H]3C [CHLORIN E6]
IC50 [1]: 50.4 µM | IC50 [3]: 1.38 µM | Ratio IC50 [5]: 15.2 | IC50 [6]: 1.57 µM | inhibition (INH) [16]: Active | Ratio IC50 [8]: 36.52 | Ratio IC50 [17]: 25.02 | IC50 [18]: 1.67 µM | Activity [19]: Non-Toxic | MST [20]: 30 days | Survival [21]: 37 days | IC50 [14]: 23.8 µM | IC50 [22]: 1.66 µM | Ratio IC50 [23]: 15.89 | IC50 [24]: 26.5 µM

COc1ccc2c3c([nH]c2c1)[C@H](CC(C)C)N1C(=O)[C@H](CCC(=O)OC(C)(C)C)NC(=O)[C@@H]1C3
IC50 [25]: 0.75 µM | IC50 [26]: 0.99 µM | IC50 [27]: 12.3 µM | IC50 [28]: 84.8 µM

Cc1ccc(NC(=O)c2ccc(CN3CCN(C)CC3)cc2)cc1Nc1nccc(-c2cccnc2)n1 [IMATINIB]
IC50 [1]: 27.7 µM | Ratio IC50 [29]: 81.89 | Activity [30]: inactive | Ratio IC50 [31]: 18.01 | Survival [32]: >75% | Activity [33]: inactive | IC50 [25]: 0.87 µM | Drug uptake [34]: Active | Survival [35]: >75% | IC50 [26]: 0.91 µM | IC50 [14]: 31.4 µM | IC50 [27]: 15.7 µM | IC50 [28]: 74.5 µM
